# Experimental data as given in US20250367138A1 (Novocure GmbH, priority 2024, published 2025).
# Tests used:
# GBM cells = test: Preliminary work: MGO-induced glycation and invasion of GBM cells; assay type: cell-based
# From the text: Glioblastoma (GBM) is a highly aggressive and invasive brain tumor.
# [1] = tested on: GBM cell lines U251, LN229, and U87; test: Live cell count of GBM cell lines treated with MGO and TTFields (Inovitro system); assay type: cell-based
# From the text: At the experimental endpoint cells were visualized by microscopy, counted, and taken for protein or RNA extraction for further analysis.
# GBM cell lines U251, LN229, and U87 were used in this Example. […] The Inovitro™ system was operated with low intensity (1-3 V/cm) and medium frequency (200 kHz) alternating electric fields, which have a selective antimitotic effect on cancer cells. […] In addition, the arrangement of alpha and gamma tubulin was visualised by immunofluorescence.
# The results of each experiment are indicated as cell count (live cells).
structure (smiles),measurement,setting,value
"CC(=O)C=O [MGO, methylglyoxal]",glycation of cell surface proteins,GBM cells,induces glycation of cell surface proteins
same,invasion / phenotype,GBM cells; associated with MGO-induced glycation,increased invasion
same,proliferation of cells (cell count),"[1]; 0.1 mM MGO alone, FIG. 2",increased proliferation
same,effect of TTFields on proliferation of cells under MGO,"[1]; 0.1 mM MGO plus TTFields (200 kHz, 1-3 V/cm), FIG. 2",reduce the increased proliferation
same,rate of apoptosis with additional TTFields,"[1]; 0.3 mM MGO over the entire period plus TTFields (200 kHz, 1-3 V/cm)",enhanced
same,rate of apoptosis,"[1]; 0.3 mM MGO over the entire period, alone, FIGS. 3-4",increased rate of apoptosis
same,combination effect of concomitant TTFields and MGO (live cell count),"[1]; Example 2, experiments A-H: 0.1 or 0.3 mmol/L MGO, TTFields 24-72 h, U251, LN229, U87, FIGS. 5-12",synergistic effect
